Source: patent US11701355B2, “Levosimendan for treating pulmonary hypertension with heart failure with preserved ejection fraction (PH-HFpEF)” (Tenax Therapeutics, Inc., priority 2019, dated 2023)

Test: Pharmacokinetic study, subcutaneous vs IV administration, plasma levosimendan and OR-1896 by HPLC/MS/MS
Conditions: male, Sprague Dawley, rat, in vivo
Experimental: A pharmacokinetic study was conducted in male Sprague Dawley rats to compare subcutaneous administration of a composition of the present invention with IV administration of a formulation of levosimendan. The study evaluated levosimendan blood levels and pain at the injection site.
This study involved comparing the results of administering two subcutaneous compositions according to embodiments of the present invention to a previous pharmacokinetic study in which male rats were dosed by tail vein levosimendan as an IV bolus injection at 0.5 mg/kg using a 0.25 mg/ml solution. Thus, this study comprised three study arms: • a. IV administration of a composition comprising levosimendan (0.25 mg/ml) and phosphate buffer (10 mmolar), prepared in sterile water for injection and adjusted to a pH of 7.0 to 7.9 using 1 N NaOH or 10 N NaOH; this composition was administered at a dose of 0.5 mg/kg. • b. Subcutaneous administration of a composition comprising levosimendan (1.0 mg/ml), Captisol® (100 mg/ml), and phosphate buffer (10 mmolar), prepared in sterile water for injection and adjusted to a pH of 7.0 to 7.9 using 1 N NaOH or 10 N NaOH; this composition was administered at a dose of 0.5 mg/kg. • c. […]
Plasma samples were analyzed for levosimendan and OR-1896 (the primary metabolite) by HPLC/MS/MS. […]

With `C[C@@H]1CC(=O)NN=C1c1ccc(NN=C(C#N)C#N)cc1` [levosimendan, Levosimendan] the “start of the β phase (loss from blood mainly due to metabolism)” value was “about 2 hours”.
